# Tests used:
# barnyardgrass [1] = experiment: Test C postemergence; assay type: in vivo, Echinochloa crus-galli
# Source text: (§1) Seeds of plant species selected from blackgrass (Alopecurus myosuroides), ryegrass, Italian (Italian ryegrass, Lolium multiflorum), wheat (winter wheat, Triticum aestivum), galium (catchweed bedstraw, Galium aparine), corn (Zea mays), crabgrass, large (large crabgrass, Digitaria sanguinalis), foxtail, giant, (giant foxtail, Setaria faberii), johnsongrass (Sorghum halepense), lambsquarters (Chenopodium album), morningglory (Ipomoea coccinea), nutsedge, yellow (yellow nutsedge, Cyperus esculentus), pigweed (Amaranthus retroflexus), ragweed (common ragweed, Ambrosia elatior), soybean (Glycine max), barnyardgrass (Echinochloa crus-galli), oilseed rape (Brassica napus), waterhemp (common waterhemp, Amaranthus rudis), and velvetleaf (Abutilon theophrasti) were planted into a blend of loam soil and sand and treated preemergence with test chemicals formulated in a non-phytotoxic solvent mixture which included a surfactant. At the same time, plants selected from these crop and weed species and also chickweed (common chickweed, Stellaria media), oat, wild (wild oat, Avena fatua), and kochia (Kochia scoparia), were planted in pots containing Sunshine Redi-Earth® planting medium comprising spaghnum peat moss, vermiculite, starter nutrients and dolomitic limestone and treated with postemergence applications of test chemicals formulated in the same manner. Plants ranged in height from 2 to 18 cm (1- to 4-leaf stage) for postemergence treatments. […] A dash (-) response means no test result.
# sedge, umbrella = experiment: Test B flooded paddy test; assay type: in vivo, Cyperus difformis; details: Cyperus difformis, 360 h, 125 g ai/ha, applied to paddy water at 2-leaf stage, visual rating after 13 to 15 d, scale 0 (no effect) to 100 (complete control), read-out: Plant response rating, Sedge, Umbrella, Flood
# Summary of the method: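 Pots were flooded to 3 cm above the soil at treatment, and compounds were applied directly into the paddy water. That depth was held throughout. After 13 to 15 d in a greenhouse, plants were rated visually against untreated controls.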
# nutsedge, yellow = experiment: Test C postemergence; assay type: in vivo, Cyperus esculentus
# Source text: as §1
# galium = experiment: Test C postemergence; assay type: in vivo, Galium aparine
# Source text: as §1
# blackgrass = experiment: Test C postemergence; assay type: in vivo, Alopecurus myosuroides
# Source text: as §1
# oilseed rape = experiment: Test C postemergence; assay type: in vivo, Brassica napus
# Source text: as §1
# waterhemp = experiment: Test C postemergence; assay type: in vivo, Amaranthus rudis
# Source text: as §1
# crabgrass, large = experiment: Test C postemergence; assay type: in vivo, Digitaria sanguinalis
# Source text: as §1
# wheat = experiment: Test A postemergence; assay type: in vivo, Triticum aestivum; details: Triticum aestivum, post-emergence, 240 h, 0 to 100 scale (0 no effect, 100 complete control), approx. 10 d, read-out: Plant response rating, Wheat
# Summary of the method: (§2)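 Herbicidal response was scored on plants treated pre- or postemergence with surfactant-containing, non-phytotoxic solvent formulations. Preemergence meant a directed spray onto soil (loam–sand) holding sown seed; postemergence plants were at one to two leaves.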
# foxtail, giant [2] = experiment: Test A postemergence; assay type: in vivo, Setaria faberii; details: Setaria faberi, post-emergence, 240 h, 0 to 100 scale (0 no effect, 100 complete control), approx. 10 d, read-out: Plant response rating, Foxtail, Giant
# Summary of the method: as §2
# pigweed = experiment: Test A postemergence; assay type: in vivo, Amaranthus retroflexus; details: Amaranthus retroflexus, post-emergence, 240 h, 0 to 100 scale (0 no effect, 100 complete control), approx. 10 d, read-out: Plant response rating, Pigweed
# Summary of the method: as §2
# morningglory = experiment: Test C postemergence; assay type: in vivo, Ipomoea coccinea
# Source text: as §1
# barnyardgrass [3] = experiment: Test A preemergence; assay type: in vivo, Echinochloa crus-galli; details: Echinochloa crus-galli, pre-emergence, 240 h, 0 to 100 scale (0 no effect, 100 complete control), read-out: Plant response rating, Barnyardgrass
# Summary of the method: as §2
# johnsongrass = experiment: Test C postemergence; assay type: in vivo, Sorghum halepense
# Source text: as §1
# velvetleaf = experiment: Test C postemergence; assay type: in vivo, Abutilon theophrasti
# Source text: as §1
# kochia = experiment: Test C postemergence; assay type: in vivo, Kochia scoparia
# Source text: as §1
# barnyardgrass [4] = experiment: Test A postemergence; assay type: in vivo, Echinochloa crus-galli; details: Echinochloa crus-galli, post-emergence, 240 h, 0 to 100 scale (0 no effect, 100 complete control), approx. 10 d, read-out: Plant response rating, Barnyardgrass
# Summary of the method: as §2
# ryegrass, Italian = experiment: Test C postemergence; assay type: in vivo, Lolium multiflorum
# Source text: as §1
# foxtail, giant [5] = experiment: Test A preemergence; assay type: in vivo, Setaria faberii; details: Setaria faberi, pre-emergence, 240 h, 0 to 100 scale (0 no effect, 100 complete control), read-out: Plant response rating, Foxtail, Giant
# Summary of the method: as §2
# corn = experiment: Test C postemergence; assay type: in vivo, Zea mays
# Source text: as §1
compound,measurement,setting,value
"CCc1nc(-c2ccc(C(F)(F)F)cc2)nn1Cc1ccnc(C(F)(F)F)c1 [Compound 1, 4-[[5-ethyl-3-[4-(trifluoromethyl)phenyl]-1H-1,2,4-triazol-1-yl]methyl]-2-(trifluoromethyl)pyridine]",Plant response rating (scale of 0 to 100 where 0 is no effect and 100 is complete control),barnyardgrass [1]; 31 g ai/ha,10
same,Plant response rating (scale of 0 to 100 where 0 is no effect and 100 is complete control),barnyardgrass [1]; 62 g ai/ha,15
same,Plant response rating (scale of 0 to 100 where 0 is no effect and 100 is complete control),barnyardgrass [1]; 125 g ai/ha,15
same,Plant response rating (scale of 0 to 100 where 0 is no effect and 100 is complete control),barnyardgrass [1]; 250 g ai/ha,50
same,pest or weed control at 125 g/ha,"sedge, umbrella",75%
same,Plant response rating (scale of 0 to 100 where 0 is no effect and 100 is complete control),"nutsedge, yellow; 31 g ai/ha",5
same,Plant response rating (scale of 0 to 100 where 0 is no effect and 100 is complete control),"nutsedge, yellow; 62 g ai/ha",5
same,Plant response rating (scale of 0 to 100 where 0 is no effect and 100 is complete control),"nutsedge, yellow; 125 g ai/ha",5
same,Plant response rating (scale of 0 to 100 where 0 is no effect and 100 is complete control),"nutsedge, yellow; 250 g ai/ha",10
same,Plant response rating (scale of 0 to 100 where 0 is no effect and 100 is complete control),galium; 31 g ai/ha,80
same,Plant response rating (scale of 0 to 100 where 0 is no effect and 100 is complete control),galium; 62 g ai/ha,80
same,Plant response rating (scale of 0 to 100 where 0 is no effect and 100 is complete control),galium; 125 g ai/ha,90
same,Plant response rating (scale of 0 to 100 where 0 is no effect and 100 is complete control),galium; 250 g ai/ha,90
same,Plant response rating (scale of 0 to 100 where 0 is no effect and 100 is complete control),blackgrass; 31 g ai/ha,5
same,Plant response rating (scale of 0 to 100 where 0 is no effect and 100 is complete control),blackgrass; 62 g ai/ha,5
same,Plant response rating (scale of 0 to 100 where 0 is no effect and 100 is complete control),blackgrass; 125 g ai/ha,15
same,Plant response rating (scale of 0 to 100 where 0 is no effect and 100 is complete control),blackgrass; 250 g ai/ha,35
same,Plant response rating (scale of 0 to 100 where 0 is no effect and 100 is complete control),"oilseed rape; Oilsee Rape, 250 g ai/ha",90
same,Plant response rating (scale of 0 to 100 where 0 is no effect and 100 is complete control),"oilseed rape; Oilseed Rape, 31 g ai/ha",50
same,Plant response rating (scale of 0 to 100 where 0 is no effect and 100 is complete control),"oilseed rape; Oilseed Rape, 62 g ai/ha",70
same,Plant response rating (scale of 0 to 100 where 0 is no effect and 100 is complete control),"oilseed rape; Oilseed Rape, 125 g ai/ha",80
same,Plant response rating (scale of 0 to 100 where 0 is no effect and 100 is complete control),waterhemp; 31 g ai/ha,85
same,Plant response rating (scale of 0 to 100 where 0 is no effect and 100 is complete control),waterhemp; 62 g ai/ha,85
same,Plant response rating (scale of 0 to 100 where 0 is no effect and 100 is complete control),waterhemp; 125 g ai/ha,90
same,Plant response rating (scale of 0 to 100 where 0 is no effect and 100 is complete control),waterhemp; 250 g ai/ha,90
same,Plant response rating (scale of 0 to 100 where 0 is no effect and 100 is complete control),"crabgrass, large; 31 g ai/ha",5
same,Plant response rating (scale of 0 to 100 where 0 is no effect and 100 is complete control),"crabgrass, large; 62 g ai/ha",5
same,Plant response rating (scale of 0 to 100 where 0 is no effect and 100 is complete control),"crabgrass, large; 125 g ai/ha",45
same,Plant response rating (scale of 0 to 100 where 0 is no effect and 100 is complete control),"crabgrass, large; 250 g ai/ha",45
same,plant injury at 125 g/ha,wheat; 125 g ai/ha,30%
same,plant injury at 500 g/ha,wheat; 500 g ai/ha,60%
same,pest or weed control at 125 g/ha,"foxtail, giant [2]; 125 g ai/ha",90%
same,pest or weed control at 500 g/ha,"foxtail, giant [2]; 500 g ai/ha",100%
same,pest or weed control at 125 g/ha,pigweed; 125 g ai/ha,100%
same,pest or weed control at 500 g/ha,pigweed; 500 g ai/ha,100%
same,Plant response rating (scale of 0 to 100 where 0 is no effect and 100 is complete control),morningglory; 31 g ai/ha,60
same,Plant response rating (scale of 0 to 100 where 0 is no effect and 100 is complete control),morningglory; 62 g ai/ha,70
same,Plant response rating (scale of 0 to 100 where 0 is no effect and 100 is complete control),morningglory; 125 g ai/ha,70
same,Plant response rating (scale of 0 to 100 where 0 is no effect and 100 is complete control),morningglory; 250 g ai/ha,95
same,pest or weed control at 125 g/ha,barnyardgrass [3]; 125 g ai/ha,80%
same,pest or weed control at 500 g/ha,"barnyardgrass [3]; 500 g ai/ha, approx. 10 d",90%
same,Plant response rating (scale of 0 to 100 where 0 is no effect and 100 is complete control),johnsongrass; 31 g ai/ha,10
same,Plant response rating (scale of 0 to 100 where 0 is no effect and 100 is complete control),johnsongrass; 62 g ai/ha,10
same,Plant response rating (scale of 0 to 100 where 0 is no effect and 100 is complete control),johnsongrass; 125 g ai/ha,15
same,Plant response rating (scale of 0 to 100 where 0 is no effect and 100 is complete control),johnsongrass; 250 g ai/ha,20
same,Plant response rating (scale of 0 to 100 where 0 is no effect and 100 is complete control),velvetleaf; 31 g ai/ha,40
same,Plant response rating (scale of 0 to 100 where 0 is no effect and 100 is complete control),velvetleaf; 62 g ai/ha,55
same,Plant response rating (scale of 0 to 100 where 0 is no effect and 100 is complete control),velvetleaf; 125 g ai/ha,60
same,Plant response rating (scale of 0 to 100 where 0 is no effect and 100 is complete control),velvetleaf; 250 g ai/ha,75
same,Plant response rating (scale of 0 to 100 where 0 is no effect and 100 is complete control),kochia; 31 g ai/ha,85
same,Plant response rating (scale of 0 to 100 where 0 is no effect and 100 is complete control),kochia; 62 g ai/ha,85
same,Plant response rating (scale of 0 to 100 where 0 is no effect and 100 is complete control),kochia; 125 g ai/ha,90
same,Plant response rating (scale of 0 to 100 where 0 is no effect and 100 is complete control),kochia; 250 g ai/ha,90
same,pest or weed control at 125 g/ha,barnyardgrass [4]; 125 g ai/ha,80%
same,pest or weed control at 500 g/ha,barnyardgrass [4]; 500 g ai/ha,90%
same,Plant response rating (scale of 0 to 100 where 0 is no effect and 100 is complete control),"ryegrass, Italian; 31 g ai/ha",5
same,Plant response rating (scale of 0 to 100 where 0 is no effect and 100 is complete control),"ryegrass, Italian; 62 g ai/ha",5
same,Plant response rating (scale of 0 to 100 where 0 is no effect and 100 is complete control),"ryegrass, Italian; 125 g ai/ha",5
same,Plant response rating (scale of 0 to 100 where 0 is no effect and 100 is complete control),"ryegrass, Italian; 250 g ai/ha",5
same,pest or weed control at 125 g/ha,"foxtail, giant [5]; 125 g ai/ha",100%
same,pest or weed control at 500 g/ha,"foxtail, giant [5]; 500 g ai/ha, approx. 10 d",100%
same,Plant response rating (scale of 0 to 100 where 0 is no effect and 100 is complete control),corn; 31 g ai/ha,15
same,Plant response rating (scale of 0 to 100 where 0 is no effect and 100 is complete control),corn; 62 g ai/ha,15
same,Plant response rating (scale of 0 to 100 where 0 is no effect and 100 is complete control),corn; 125 g ai/ha,20
same,Plant response rating (scale of 0 to 100 where 0 is no effect and 100 is complete control),corn; 250 g ai/ha,20
